In patent publication US10548915B2, “Combination therapy for EV71 infection” (SUN JET BIOTECHNOLOGY INC., priority 2015, dated 2020):

Tested on: EV71 replication in RD cells
Experiment: anti-VP1 western blot of EV71-infected RD cells (VP1/vimentin ratio normalized to non-treated infected cells)
Assay type: cell-based, enterovirus type 71 (EV71 strain 4643/TW/1998)
Experimental: Antibodies—Used antibodies included rabbit anti-VP1 (GTX70007, 1:2000, GeneTex), mouse anti-vimentin (sc-6260, 1:1000, Santa Cruz).
Cell lines, viruses and viral infection—RD (Human rhabdomyosarcoma, ATCC® CCL-136™) cells were grown in Dulbecco's modified Eagle's medium (Sigma, USA) containing 10% fetal bovine serum (Invitrogen, USA), at 5% CO2 and 37° C. EV71 strain 4643/TW/1998 (GeneBank accession number 1N544418.1) was kindly provided by Dr. Lih-Hwa Hwang at National Yang-Ming University, Taiwan. Viruses were added to RD cells which were cultured in DMEM containing 2% FBS. The newly generated viruses were titrated by cytopathology assay. For viral infection, cells were seeded at 80% confluency in 6-well dishes and grown overnight. Before challenge with viruses of 5 multiplicity of infection (MOI), old medium was replaced with serum-free medium. After 1 h adsorption of viruses, infected cells were cultured in DMEM with 10% FBS.
Western blotting—Protein extracted from RD cells were resolved with electrophoresis. Protein were blotted onto a nitrocellulose membrane eletrophoretically and incubated with indicated antibodies. The immunoreactive bands were visualized with LAS-4000 (FUJIFLIM).

[1] = single compound at 0.005 μM (so in the source), RD cells, EV71 MOI 5
[2] = single compound at 5 μM, RD cells, EV71 MOI 5

SMILES | VP1 expression relative to non-treated infected cells [1] | anti-EV71 effect (VP1 expression), in words (single compound at 0.05 μM) | anti-EV71 effect (VP1 expression), in words (single compound at 5 μM) | VP1 expression relative to non-treated infected cells [2] | further results
CC(=O)OC[C@H]1O[C@@H]([S-])[C@H](OC(C)=O)[C@@H](OC(C)=O)[C@@H]1OC(C)=O.CCP(CC)CC.[Au+] [auranofin] | 0.9 | minimal effects | strong anti-EV71 | 0.05 | 
CC[C@H]1CN2CCc3cc(OC)c(OC)cc3[C@@H]2C[C@@H]1C[C@H]1NCCc2cc(OC)c(OC)cc21 [emetine] |  | VP1 expression returning |  |  | anti-EV71 effect (VP1 expression), in words (single compound at 0.5-5 μM): strong blockage of EV71 expression
CNCC[C@H](Oc1ccc(C(F)(F)F)cc1)c1ccccc1 [fluoxetine, S-(+)-fluoxetine] |  |  |  |  | VP1 expression relative to non-treated infected cells (single compound, all tested concentrations (5, 0.5, 0.05 μM)): 0.9-1.0
O=C(Nc1ccc([N+](=O)[O-])cc1Cl)c1cc(Cl)ccc1O [niclosamide] | 0.9 | minimal effects | strong anti-EV71 | 0.2 | 
C[C@@H]1O[C@@H](O[C@H]2C[C@@H](O)[C@]3(CO)[C@H]4[C@H](O)C[C@]5(C)[C@@H](C6=CC(=O)OC6)CC[C@]5(O)[C@@H]4CC[C@]3(O)C2)[C@H](O)[C@H](O)[C@H]1O [ouabain] |  |  |  |  | anti-EV71 effect (VP1 expression), in words (single compound at 0.005 μM): VP1 expression returning; anti-EV71 effect (VP1 expression), in words (single compound at 0.05-5 μM): strong blockage of EV71 expression
